Reference: US8741911B2, “Raf inhibitor compounds” (Eli Lilly and Company, priority 2012, dated 2014)
Read-outs that look alike come from different tables or passages of the source.

Key:
C3A = assay: CellTiter-Glo proliferation and viability assay; type: cell-based; conditions: Homo sapiens
HepG2 = assay: CellTiter-Glo proliferation and viability assay; type: cell-based; conditions: Homo sapiens
MIA-PaCa-2 = assay: CellTiter-Glo proliferation and viability assay; type: cell-based; conditions: Homo sapiens, read-out: Abs IC50
LOVO = assay: CellTiter-Glo proliferation and viability assay; type: cell-based; conditions: Homo sapiens
SK-Mel-28 = assay: CellTiter-Glo proliferation and viability assay; type: cell-based; conditions: Homo sapiens
Sk-MeI-2 cells = assay: CellTiter-Blue SK-MeI-2 cell proliferation assay; type: cell-based; conditions: Homo sapiens; SK-Mel-2, CellTiter-Blue; read-out: Cell Proliferation Inhibition IC50
Method: Sk-MeI-2 cells (catalog #HTB-68) are obtained from the American Type Culture Collection (ATCC, Manassas, Va.). Briefly, cells are grown in MEM supplemented with 10% characterized fetal bovine serum (Invitrogen, Carlsbad, Calif.), 1 mM sodium pyruvate, 0.1 mM non-essential amino acids, and 1% Penicillin/Streptomycin/L-Glutamine at 37 degrees Celsius, 5% CO2, and 95% humidity. Cells are allowed to expand until reaching 70-95% confluency at which point they are subcultured or harvested for assay use. A serial dilution of test compound is dispensed into a 384-well black clear bottom plate in triplicate. One thousand two-hundred fifty cells are added per well in 50 μL complete growth medium in the 384-well plate. Plates are incubated for 67 hours at 37 degrees Celsius, 5% CO2, and 95% humidity. At the end of the incubation period, 10 μL of a 440 μM solution of resazurin (Sigma, St. Louis, Mo.) in PBS is added to each well of the plate and plates are incubated for an additional 5 hours at 37 degrees Celsius, 5% CO2, and 95% humidity. Plates are read on a Synergy2 reader (Biotek, Winooski, Vt.) using an excitation of 540 nm and an emission of 600 nm. Data is analyzed using Prism software (Graphpad, San Diego, Calif.) to calculate IC50 values.
The A375, HT-29, and Colo-205 cells (ATCC) harbor a V600E mutation.

COLO-829 = assay: CellTiter-Glo proliferation and viability assay; type: cell-based; conditions: Homo sapiens
[1] = system: HCT-116 K-Ras mutant B-Raf wild type xenograft; assay: HCT-116 xenograft tumor model, efficacy; type: in vivo, rat; conditions: nude rats, oral twice a day 30 mg/kg for 21 days
Method: Briefly, 10×10^6 cells (A375) or 5×10^6 cells (HCT-116) in a 1:1 medium and matrigel mix (0.2 mL total volume) are implanted by subcutaneous injection in the hind leg of nude female rats (NIH model No. NIHRNU-M from Taconic). A total of 8 rats in each group are used for the efficacy study, and a total of 3-4 rats in each group are used for a pharmacodynamic study. The Eli Lilly and Company Animal Care and Use Committee approved all the experimental protocols. […] Tumor growth and body weight are monitored over time to evaluate activity and signs of toxicity. Bidimensional measurements of tumors are performed twice a week and tumor volumes are calculated based on mid-axis length and mid-axis width. Tumor volume data are transformed to a log scale to equalize variance across time and treatment groups. The log volume data are analyzed with a two-way repeated measures analysis of variance by time and treatment using the MIXED® procedures in SAS® software (version 8.2). The correlation model for the repeated measures is spatial power. Treated groups are compared to the control group at each time point. The MIXED® procedure is also used separately for each treatment group to calculate adjusted means and standard errors at each time point. […]

MKN45 = assay: CellTiter-Glo proliferation and viability assay; type: cell-based; conditions: Homo sapiens
BT-474 = assay: CellTiter-Glo proliferation and viability assay; type: cell-based; conditions: Homo sapiens
C8166 = assay: CellTiter-Glo proliferation and viability assay; type: cell-based; conditions: Homo sapiens
NCI-H2009 = assay: CellTiter-Glo proliferation and viability assay; type: cell-based; conditions: Homo sapiens
C-Raf (WT) = C-Raf (WT) (Homo sapiens, UniProt P04049); assay: biochemical
C-Raf (WT), sequence (P04049 whole entry): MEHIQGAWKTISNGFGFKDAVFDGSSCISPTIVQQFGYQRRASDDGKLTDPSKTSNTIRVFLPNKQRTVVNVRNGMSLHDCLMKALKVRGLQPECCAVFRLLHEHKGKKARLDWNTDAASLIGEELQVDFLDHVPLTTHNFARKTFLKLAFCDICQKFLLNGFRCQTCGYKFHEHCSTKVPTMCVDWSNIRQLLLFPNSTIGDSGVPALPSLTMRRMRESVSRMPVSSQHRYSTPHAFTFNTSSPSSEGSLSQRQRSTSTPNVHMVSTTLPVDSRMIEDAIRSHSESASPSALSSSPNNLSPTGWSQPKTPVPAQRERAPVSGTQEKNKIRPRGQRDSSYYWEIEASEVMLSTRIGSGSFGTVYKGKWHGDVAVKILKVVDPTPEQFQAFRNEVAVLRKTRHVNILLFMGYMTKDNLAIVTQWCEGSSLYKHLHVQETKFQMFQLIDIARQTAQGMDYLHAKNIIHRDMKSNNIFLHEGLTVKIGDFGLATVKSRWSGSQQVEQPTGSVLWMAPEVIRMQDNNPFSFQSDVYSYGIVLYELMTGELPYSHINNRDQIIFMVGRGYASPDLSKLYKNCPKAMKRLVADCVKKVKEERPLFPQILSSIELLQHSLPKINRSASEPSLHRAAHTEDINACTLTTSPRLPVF

Hs746T = assay: CellTiter-Glo proliferation and viability assay; type: cell-based; conditions: Homo sapiens
MDA-MB-436 = assay: CellTiter-Glo proliferation and viability assay; type: cell-based; conditions: Homo sapiens
GA-10-Clone-4 = assay: CellTiter-Glo proliferation and viability assay; type: cell-based; conditions: Homo sapiens
HCC70 = assay: CellTiter-Glo proliferation and viability assay; type: cell-based; conditions: Homo sapiens
Solubility = type: physicochemical
[2] = system: SK-MeI-2 cells harboring N-Ras mutation Q61R, and B-Raf wild type; assay: CellTiter-Glo proliferation and viability assay; type: cell-based; conditions: Homo sapiens; SK-MeI-2, CellTiter-Glo; read-out: cell proliferation and viability IC50
SK-Mel-5 = assay: CellTiter-Glo proliferation and viability assay; type: cell-based; conditions: Homo sapiens

CNc1ncc2cc(-c3cc(NC(=O)NCCC(C)(C)C)c(F)cc3C)c(C)nc2n1 [Example 1, 1-(3,3-Dimethylbutyl)-3-(2-fluoro-4-methyl-5-(7-methyl-2-(methylamino)pyrido[2,3-d]pyrimidin-6-yl)phenyl)urea]
IC50 (C3A; read-out: Abs IC50): > 20 nM
IC50 (C3A; read-out: Rel IC50): 0.6 nM
IC50 (HepG2; read-out: Abs IC50): 0.06 nM
IC50 (HepG2; read-out: Rel IC50): 0.03 nM
IC50 (MIA-PaCa-2): 1.09 nM
IC50 (LOVO; read-out: Abs IC50): 0.19 nM
IC50 (LOVO; read-out: Rel IC50): 0.12 nM
IC50 (SK-Mel-28; SK-MEL-28, read-out: Abs IC50): 0.04 nM
IC50 (SK-Mel-28; SK-MEL-28, read-out: Rel IC50): 0.03 nM
IC50 (SK-Mel-28; SK-Mel-28, B-Raf V600E, melanoma, CellTiter-Glo, read-out: IC50): 29 nM
IC50 (Sk-MeI-2 cells): 158 nM
IC50 (COLO-829; read-out: Abs IC50): 0.05 nM
IC50 (COLO-829; read-out: Rel IC50): 0.04 nM
tumor growth [1]: statistically significant tumor growth inhibition
IC50 (MKN45; MKN-45, read-out: Abs IC50): 5.72 nM
IC50 (MKN45; MKN-45, read-out: Rel IC50): 0.87 nM
IC50 (BT-474; read-out: Abs IC50): 11.6 nM
IC50 (BT-474; read-out: Rel IC50): 10.9 nM
IC50 (C8166; read-out: Abs IC50): 1.09 nM
IC50 (C8166; read-out: Rel IC50): 0.56 nM
IC50 (NCI-H2009; read-out: Abs IC50): 11.9 nM
IC50 (NCI-H2009; read-out: Rel IC50): 1.58 nM
inhibition at 0.001 µM (C-Raf (WT)): -11%
inhibition at 0.01 µM (C-Raf (WT)): 23.9%
inhibition at 0.1 µM (C-Raf (WT)): 50.8%
inhibition at 1 µM (C-Raf (WT)): 79.3%
IC50 (Hs746T; read-out: Abs IC50): 0.98 nM
IC50 (Hs746T; read-out: Rel IC50): 0.76 nM
IC50 (MDA-MB-436; read-out: Abs IC50): > 20 nM
IC50 (MDA-MB-436; read-out: Rel IC50): 0.26 nM
IC50 (GA-10-Clone-4; read-out: Abs IC50): 0.2 nM
IC50 (GA-10-Clone-4; read-out: Rel IC50): 0.25 nM
IC50 (HCC70; read-out: Abs IC50): > 20 nM
IC50 (HCC70; read-out: Rel IC50): > 20 nM
solubility (Solubility): poor
IC50 [2]: 188 nM
IC50 (SK-Mel-5; read-out: Abs IC50): 0.13 nM
IC50 (SK-Mel-5; read-out: Rel IC50): 0.06 nM
